Experimental findings from BindingDB's records for doi:10.1021/acs.jnatprod.0c00251 (University of Halle-Wittenberg, 2020) are described below.

The structures appear in SMILES notation. Numbered stars: 1 amine (or outer) side, 2 acyl side, 3 side chain; on linkers, the order of the positions; unused ones are H or OH. Bridge positions count the residues as written; N and C are the ends. Square brackets hold non-standard residues; d marks the D form. Peptide text beside a SMILES is read from it. * marks the point of attachment. Adda = CO[C@@H](Cc1ccccc1)[C@@H](C)/C=C(C)/C=C/[C@H](N[*:1])[C@H](C)C(=O)[*:2]; dAsp(3S-Me) = C[C@H](C(=O)[*:3])[C@@H](N[*:1])C(=O)[*:2]; d(γGlu) = O=C(O)[C@@H](CCC(=O)[*:2])N[*:1]; NMeDha = C=C(NC)C(=O)O; Propargyl = C#CC*

The nature of series [1]: Substrate activity at OATP1B3 (unknown origin) expressed in HEK293 cells assessed as cytotoxicity incubated for 48 hrs by sulforhodamine B assay.
A short description of series [2]: Substrate activity at OATP1B1 (unknown origin) expressed in HEK293 cells assessed as cytotoxicity incubated for 48 hrs by sulforhodamine B assay.

Consider `C=C1C(=O)N[C@H](C)C(=O)N[C@@H](Cc2ccc(O)cc2)C(=O)N[C@@H](C(=O)O)[C@H](C)C(=O)N[C@@H](CCCNC(=N)N)C(=O)N[C@@H](/C=C/C(C)=C/[C@H](C)[C@H](Cc2ccccc2)OC)[C@H](C)C(=O)N[C@@H](C(=O)O)CCC(=O)N1C` (R[Adda][d(γGlu)][NMeDha][dA]Y[dAsp(3S-Me)]-OH; lactam N-7), for which the EC50 in series [1] turned out to be 3 nM; in series [2] it was 4.5 nM.
On to `C#CCOc1ccc(C[C@@H]2NC(=O)[C@@H](C)NC(=O)C(=C)N(C)C(=O)CC[C@H](C(=O)O)NC(=O)[C@@H](C)[C@H](/C=C/C(C)=C/[C@H](C)[C@H](Cc3ccccc3)OC)NC(=O)[C@H](CCCNC(=N)N)NC(=O)[C@@H](C)[C@H](C(=O)O)NC2=O)cc1` (R[Adda][d(γGlu)][NMeDha][dA]Y(Propargyl)[dAsp(3S-Me)]-OH; lactam N-7), for which the concentration for a half-maximal effect (EC50) worked out at 2.4 nM in series [1] and 1.1 nM in series [2].
Taken in the same sequence, the figures for `C=C1C(=O)N[C@H](C)C(=O)N[C@@H](Cc2ccc(OCc3cn(-c4cc5ccc(O)cc5oc4=O)nn3)cc2)C(=O)N[C@@H](C(=O)O)[C@H](C)C(=O)N[C@@H](CCCNC(=N)N)C(=O)N[C@@H](/C=C/C(C)=C/[C@H](C)[C@H](Cc2ccccc2)OC)[C@H](C)C(=O)N[C@@H](C(=O)O)CCC(=O)N1C` were 1.4 nM and 1.7 nM.
